Experimental data: the supplement of paper PMC9663587

Assays:
184A1 [1] = assay: area over the GR curve, 72 h; higher = more effect;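 also: Dye Drop or Deep Dye Drop imaging of viable cells in 384-well plates (Hoechst nuclei, LIVE/DEAD dye), nine half-log doses, GR normalized to DMSO controls and time-zero plates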
HCC1187 = assay: area over the GR curve, 72 h; higher = more effect;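 also: Dye Drop or Deep Dye Drop imaging of viable cells in 384-well plates (Hoechst nuclei, LIVE/DEAD dye), nine half-log doses, GR normalized to DMSO controls and time-zero plates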
HCC1395 = assay: area over the GR curve, 72 h; higher = more effect;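 also: Dye Drop or Deep Dye Drop imaging of viable cells in 384-well plates (Hoechst nuclei, LIVE/DEAD dye), nine half-log doses, GR normalized to DMSO controls and time-zero plates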
PDX1328 = assay: GRmax, 72 h; higher = less effect;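 also: breast cell lines in 384-well plates, nine doses across a 10^4 range, Dye Drop imaging of viable cells vs DMSO and time-zero plates, GR 0 means no net growth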
HS578T = assay: GRmax, 72 h; higher = less effect;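 also: breast cell lines in 384-well plates, nine doses across a 10^4 range, Dye Drop imaging of viable cells vs DMSO and time-zero plates, GR 0 means no net growth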
MCF7 = assay: GRmax, 72 h; higher = less effect;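 also: breast cell lines in 384-well plates, nine doses across a 10^4 range, Dye Drop imaging of viable cells vs DMSO and time-zero plates, GR 0 means no net growth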
184A1 [2] = assay: GRmax, 72 h; higher = less effect;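 also: breast cell lines in 384-well plates, nine doses across a 10^4 range, Dye Drop imaging of viable cells vs DMSO and time-zero plates, GR 0 means no net growth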
MDAMB468 = assay: GRmax, 72 h; higher = less effect
HCC202 = assay: GRmax, 72 h; higher = less effect
HCC38 = assay: GRmax, 72 h; higher = less effect
HCC1143 = assay: GRmax, 72 h; higher = less effect
SUM190PT = assay: GRmax, 72 h; higher = less effect
SUM229PE = assay: GRmax, 72 h; higher = less effect

| Structure (SMILES) | area over the GR curve (184A1 [1]) [GR] | area over the GR curve (HCC1187) [GR] | area over the GR curve (HCC1395) [GR] | GRmax, 72 h (PDX1328) [GR] | GRmax, 72 h (HS578T) [GR] | GRmax, 72 h (MCF7) [GR] | GRmax, 72 h (184A1 [2]) [GR] | GRmax, 72 h (MDAMB468) [GR] | GRmax, 72 h (HCC202) [GR] | GRmax, 72 h (HCC38) [GR] | GRmax, 72 h (HCC1143) [GR] | GRmax, 72 h (SUM190PT) [GR] | GRmax, 72 h (SUM229PE) [GR] | area over the GR curve (HCC1395; main component drawn) [GR] | GRmax, 72 h (PDX1328; main component drawn) [GR] | GRmax, 72 h (HS578T; main component drawn) [GR] | GRmax, 72 h (MCF7; main component drawn) [GR] | GRmax, 72 h (MDAMB468; main component drawn) [GR] | GRmax, 72 h (HCC38; main component drawn) [GR] | GRmax, 72 h (HCC1143; main component drawn) [GR] |
| --- | --- | --- | --- | --- | --- | --- | --- | --- | --- | --- | --- | --- | --- | --- | --- | --- | --- | --- | --- | --- |
| C[C@@H]1COCCN1c1cc(C2([S@](C)(=N)=O)CC2)nc(-c2cc[nH]c3nccc2-3)n1 [AZD6738] (max 10 µM) | -0.0342 | 0.249 | 0.194 | 0.299 | 0.0076 | 0.0472 | 0.518 | 0.529 | 0.383 | -0.271 | -0.0627 | -0.036 | -0.0688 |  |  |  |  |  |  |  |
| NC(=O)Nc1cc(-c2cccc(F)c2)sc1C(=O)N[C@H]1CCCNC1 [AZD7762] (max 10 µM) | -0.0013 | 0.776 | 0.857 | -0.578 | -0.598 | -0.186 | -0.513 | -0.586 | -0.277 | -0.334 | -0.369 | -0.341 | -0.357 |  |  |  |  |  |  |  |
| Cc1nc(NC(=O)N2CCC[C@H]2C(N)=O)sc1-c1ccnc(C(C)(C)C(F)(F)F)c1 [Alpelisib/BYL719] (max 10 µM) | 0.136 | 0.0302 | 0.023 | 0.203 | 0.531 | 0.0207 | 0.431 | 0.714 | 0.0449 | 0.68 | 0.48 | 0.532 | 0.523 |  |  |  |  |  |  |  |
| CN(C)C/C=C/C(=O)Nc1ccc(O[C@@H]2CCC[C@@H](Nc3ncc(Cl)c(-c4c[nH]c5ccccc45)n3)C2)cc1 [BSJ-01-175] (max 10 µM) | 1.15 | 1.08 | 1.01 | -0.254 | -0.694 | -0.627 | -0.452 | -0.617 | -0.201 | -0.564 | -0.449 | -0.545 | -0.77 |  |  |  |  |  |  |  |
| CC(=O)c1c(C)c2cnc(Nc3ccc(N4CCN(CCOCCOCCOCCNC(=O)COc5cccc6c5C(=O)N(C5CCC(=O)NC5=O)C6=O)CC4)cn3)nc2n(C2CCCC2)c1=O (stereo not given) [BSJ-03-123] (max 10 µM) | 0.708 | -0.0405 | 0.323 | 0.28 | -0.263 | -0.323 | -0.137 | -0.0298 | 0.0834 | -0.0999 | -0.0159 | -0.279 | 0.132 |  |  |  |  |  |  |  |
| CC(C)Nc1cc(-c2c[nH]c(C(=O)N[C@H](CO)c3cccc(Cl)c3)c2)c(Cl)cn1 [BVD523] (max 10 µM) | 0.704 | -0.297 | 0.259 | 0.752 | 0.259 | 0.334 | 0.046 | 0.402 | 0.57 | 0.371 | 0.0829 | 0.237 | 0.265 |  |  |  |  |  |  |  |
| Cc1c(N)nc([C@H](CC(N)=O)NC[C@H](N)C(N)=O)nc1C(=O)N[C@H](C(=O)N[C@H](C)[C@@H](O)[C@H](C)C(=O)N[C@H](C(=O)NCCc1nc(-c2nc(C(=O)NCCC[S+](C)C)cs2)cs1)[C@@H](C)O)[C@@H](OC1OC(CO)C(O)C(O)C1OC1OC(CO)C(O)C(OC(N)=O)C1O)c1cnc[nH]1 (stereo not given in full) [Bleomycin] (max 10 µM) |  |  |  |  |  |  |  |  |  |  |  |  |  | 0.607 | 0.306 | -0.197 | -0.0459 | -0.21 | -0.232 | -0.208 |
| Nc1cc(C(F)(F)F)c(-c2cc(N3CCOCC3)nc(N3CCOCC3)n2)cn1 [Buparlisib/NVP-BKM120] (max 10 µM) | 0.268 | 0.425 | 0.308 | -0.351 | -0.343 | -0.269 | -0.0111 | -0.516 | -0.0463 | -0.276 | -0.436 | -0.342 | -0.285 |  |  |  |  |  |  |  |
| COc1cc2nccc(Oc3ccc(NC(=O)C4(C(=O)Nc5ccc(F)cc5)CC4)cc3)c2cc1OC [Cabozantinib] (max 10 µM) | 0.0128 | 0.39 | 0.0651 | 0.251 | 0.215 | -0.0993 | 0.121 | 0.423 | 0.731 | 0.301 | 0.512 | -0.0122 | 0.199 |  |  |  |  |  |  |  |
| COc1cc2c(Oc3ccc4[nH]c(C)cc4c3F)ncnc2cc1OCCCN1CCCC1 [Cediranib/AZD2171] (max 10 µM) | 0.0594 | 0.195 | 0.223 | -0.544 | -0.572 | 0.115 | 0.167 | -0.708 | 0.364 | -0.204 | 0.0093 | 0.893 | 0.18 |  |  |  |  |  |  |  |
| Cc1cc(Nc2ncc(Cl)c(Nc3ccccc3S(=O)(=O)C(C)C)n2)c(OC(C)C)cc1C1CCNCC1 [Ceritinib/LDK378] (max 10 µM) | 0.347 | 0.168 | 0.215 | -0.943 | -0.436 | -0.616 | -0.728 | -0.742 | -0.803 | -0.404 | -0.422 | -0.375 | 0.336 |  |  |  |  |  |  |  |
| Cc1nc(Nc2ncc(C(=O)Nc3c(C)cccc3Cl)s2)cc(N2CCN(CCO)CC2)n1 [Dasatinib] (max 10 µM) | 0.264 | 0.618 | 0.598 | -0.401 | -0.244 | 0.157 | 0.192 | 0.339 | -0.197 | 0.332 | 0.257 | 0.423 | -0.112 |  |  |  |  |  |  |  |
| COc1cccc2c1C(=O)c1c(O)c3c(c(O)c1C2=O)C[C@@](O)(C(=O)CO)C[C@@H]3O[C@H]1C[C@H](N)[C@H](O)[C@H](C)O1 [Doxorubicin] (max 3.162 µM) | 0.706 | 1.08 | 0.637 | -0.739 | -0.347 | -0.286 | 0.028 | -0.339 | 0.245 | -0.406 | -0.251 | -0.123 | -0.125 |  |  |  |  |  |  |  |
| COc1cc([C@@H]2c3cc4c(cc3[C@@H](O[C@@H]3O[C@@H]5CO[C@@H](C)O[C@H]5[C@H](O)[C@H]3O)[C@H]3COC(=O)[C@H]23)OCO4)cc(OC)c1O [Etoposide] (max 10 µM) |  |  | 0.389 | -0.281 | -0.136 | -0.0441 |  | -0.513 |  | -0.424 | -0.166 |  |  |  |  |  |  |  |  |  |
| CO[C@H]1C[C@@H]2CC[C@@H](C)[C@@](O)(O2)C(=O)C(=O)N2CCCC[C@H]2C(=O)O[C@H]([C@H](C)C[C@@H]2CC[C@@H](OCCO)[C@H](OC)C2)CC(=O)[C@H](C)/C=C(\C)[C@@H](O)[C@@H](OC)C(=O)[C@H](C)C[C@H](C)/C=C/C=C/C=C/1C [Everolimus] (max 10 µM) | 0.452 | 0.287 | 0.555 | 0.371 | 0.42 | 0.387 | 0.501 | 0.527 | 0.474 | 0.473 | 0.557 | 0.354 | 0.686 |  |  |  |  |  |  |  |
| CC[C@@]1(O)C(=O)OCc2c1cc1n(c2=O)Cc2cc3c(CN(C)C)c(O)ccc3nc2-1 [Topotecan] (max 10 µM) |  |  | 1.08 | -0.913 | -0.449 | -0.271 |  | -0.658 |  | -0.504 | -0.43 |  |  |  |  |  |  |  |  |  |
